Results from US20200399250A1, “Pyrimidine Derivatives as Tropomyosin Receptor Kinase A (TRKA) Inhibitors” (BIOMED X GMBH, priority 2017, published 2020).
Entries after “also recorded” stand apart in the source; their conditions may differ.

Experiments:
Format in all cases: binding
TrkA [1] = target: T1, TrkA (Homo sapiens, UniProt P04629); assay: KINOMEscan primary screen against TrkA; conditions: % of control; for % Ctrl. TrkA @10 nM: 10 nM compound; for % Ctrl. TrkA @100 nM: 100 nM compound
Protocol: (§1) Compounds were initially tested in a primary screen against TrkA (at 10 and 100 nM) and AurA (at 100 nM and 1 μM) using the KINOMEscan technology from DiscoverX Corporation, Fremont, Calif., USA (https://www.discoverx.com/services/drug-discovery-development-services/kinase-profiling/kinomescan).
Results were reported as % of control (% Ctrl.=(test compound signal−positive control signal)/(DMSO signal−positive control signal). KINOMEscan is an active site-directed competition binding assay that quantitatively measures the ability of a compound to compete with an immobilized, active-site directed ligand.

AurA [2] = target: T2, AurA (Homo sapiens, UniProt O14965); assay: KINOMEscan primary screen against AurA; conditions: % of control; for % Ctrl. AurA @100 nM: 100 nM compound; for % Ctrl. AurA @1 μM: 1 μM compound
T2 sequence (O14965 1-403): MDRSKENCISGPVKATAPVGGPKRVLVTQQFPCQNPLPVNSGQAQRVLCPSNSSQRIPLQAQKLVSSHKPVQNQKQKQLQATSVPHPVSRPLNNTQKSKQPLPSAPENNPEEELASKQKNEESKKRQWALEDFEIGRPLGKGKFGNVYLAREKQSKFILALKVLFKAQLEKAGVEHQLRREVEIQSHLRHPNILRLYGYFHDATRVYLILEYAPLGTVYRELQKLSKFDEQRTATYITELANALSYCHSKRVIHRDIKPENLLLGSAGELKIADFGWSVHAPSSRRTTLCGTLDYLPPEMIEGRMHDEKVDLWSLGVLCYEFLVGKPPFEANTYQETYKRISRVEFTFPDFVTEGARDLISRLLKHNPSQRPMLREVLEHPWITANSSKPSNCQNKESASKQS
Protocol: as §1

TrkA [3] = target: T1, TrkA; assay: KdELECT Kd measurement (KINOMEscan), TrkA; conditions: for Kd: duplicate 11-point dose-response curves
Protocol: (§2) Kd measurements were done via the KdELECT product service from DiscoverX Corporation (Freemont, Calif., USA) which also employs the KINOMEscan technology. Here, inhibitor binding constants (Kd values) are calculated from duplicate 11-point dose-response curves.

TrkA [4] = assay: KdELECT Kd measurement (KINOMEscan), TrkA; conditions: for ΔpKd: TrkA pKd versus AurA pKd
Protocol: as §2

AurA [5] = target: T2, AurA; assay: KdELECT Kd measurement (KINOMEscan), AurA; conditions: for Kd: duplicate 11-point dose-response curves
Protocol: as §2

panel of 97 kinases = assay: Selectivity profiling, scanEDGE kinase panel (KINOMEscan); conditions: 100 nM, cut-off <35% ctrl; for # Hits: N = 92 non-mutant kinases; for Selectivity Score: inhibited kinases/tested kinases
Protocol: Selectivity profiling was done over a panel of 97 kinases at 100 nM concentration (scanEDGE assay panel from Discover X, which also uses the KINOMEscan technology, whereat KIT(D816V) and KIT (V559D, T6701) were replaced by TrkB and TrkC). […] The employed profiling panel consisted of the following kinases: ABL1(T3151)-phosphorylated, ABL1-nonphosphorylated, ABL1-phosphorylated, ACVR1B, ADCK3, AKT1, AKT2, ALK, AURKA, AURKB, AXL, BMPR2, BRAF, BRAF (V600E), BTK, CDK11, CDK2, CDK3, CDK7, CDK9, CHEK1, CSF1R, CSNK1D, CSNK1G2, DCAMKL1, DYRK1B, EGFR, EGFR (L858R), EPHA2, ERBB2, ERBB4, ERK1, FAK, FGFR2, FGFR3, FLT3, GSK3B, IGF1R, IKK-alpha, IKK-beta, INSR, JAK2 (JH1domain-catalytic), JAK3 (JH1domain-catalytic), JNK1, JNK2, JNK3, KIT, LKB1, MAP3K4, MAPKAPK2, MARK3, MEK1, MEK2, MET, MKNK1, MKNK2, MLK1, p38-alpha, p38-beta, PAK1, PAK2, PAK4, PCTK1, PDGFRA, PDGFRB, PDPK1, PIK3C2B, PIK3CA, PIK3CG, PIM1, PIM2, PIM3, PKAC-alpha, PLK1, PLK3, PLK4, PRKCE, RAF1, RET, RIOK2, ROCK2, RSK2 (Kin. Dom. 1-N-terminal), SNARK, SRC, SRPK3, TGFBR1, TIE2, TRKA, TRKB, TRKC, TSSK1B, TYK2 (JH1domain-catalytic), ULK2, VEGFR2, YANK3, ZAP70

T1 sequence (P04629 33-796): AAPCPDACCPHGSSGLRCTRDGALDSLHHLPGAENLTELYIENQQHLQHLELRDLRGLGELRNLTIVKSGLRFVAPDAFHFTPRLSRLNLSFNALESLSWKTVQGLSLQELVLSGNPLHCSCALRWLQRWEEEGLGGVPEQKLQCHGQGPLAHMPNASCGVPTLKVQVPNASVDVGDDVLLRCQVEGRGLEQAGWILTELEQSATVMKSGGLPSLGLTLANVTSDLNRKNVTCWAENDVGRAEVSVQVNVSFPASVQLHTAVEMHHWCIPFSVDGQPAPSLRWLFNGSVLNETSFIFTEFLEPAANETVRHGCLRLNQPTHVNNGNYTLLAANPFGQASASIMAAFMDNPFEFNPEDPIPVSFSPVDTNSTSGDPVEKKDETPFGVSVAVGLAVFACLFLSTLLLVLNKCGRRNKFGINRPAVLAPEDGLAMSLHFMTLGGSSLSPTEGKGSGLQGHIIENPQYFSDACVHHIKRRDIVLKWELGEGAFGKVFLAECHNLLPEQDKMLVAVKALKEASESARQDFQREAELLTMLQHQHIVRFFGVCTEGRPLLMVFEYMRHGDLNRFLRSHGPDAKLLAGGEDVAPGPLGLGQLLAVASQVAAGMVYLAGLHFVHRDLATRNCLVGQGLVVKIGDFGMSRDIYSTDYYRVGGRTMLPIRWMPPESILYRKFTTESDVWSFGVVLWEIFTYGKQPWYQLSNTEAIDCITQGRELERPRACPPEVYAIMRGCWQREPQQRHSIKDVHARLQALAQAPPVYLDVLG

| % Ctrl. TrkA @10 nM (TrkA [1]) [% Ctrl.] | % Ctrl. TrkA @100 nM (TrkA [1]) [% Ctrl.] | % Ctrl. AurA @100 nM (AurA [2]) [% Ctrl.] | % Ctrl. AurA @1 μM (AurA [2]) [% Ctrl.] | TrkA [pKd] (TrkA [3]) | Kd (TrkA [3]) [nM] | ΔpKd (TrkA [4]) | ΔΔpKd (selectivity towards AurA compared to tozasertib) (TrkA [4]; compared to tozasertib) | AurA [pKd] (AurA [5]) | Kd (AurA [5]) [nM] | # Hits (panel of 97 kinases) | Selectivity Score (panel of 97 kinases) | Structure (SMILES) | List of inhibited kinases (panel of 97 kinases) |
| --- | --- | --- | --- | --- | --- | --- | --- | --- | --- | --- | --- | --- | --- |
| 58 | 10 | 15 | 0.95 | 7.5 | 30 | 0.1 | 1 | 7.4 | 41 | – | – | Cc1cc(Nc2cc(N3CCN(C)CC3)nc(Sc3ccccc3)n2)n[nH]1 [Reference 2, N-(5-methyl-1H-pyrazol-3-yl)-6-(4-methylpiperazin-1-yl)-2-(phenylsulfanyl)-pyrimidin-4-amine, reference compound] | – |
| 93 | 29 | 87 | 76 | – | – | – | – | – | – | – | – | CN1CCN(c2cc(Nc3cc4ccccn4n3)nc(Sc3ccccc3)n2)CC1 [a3, 6-(4-methylpiperazin-1-yl)-2-(phenylsulfanyl)-N-(pyrazolo[1,5-a]pyridin-2-yl)pyrimidin-4-amine] | – |
| 15 | 0.95 | 49 | 4.5 | 8.8 | 1.5 | 1.8 | – | 7.0 | 93 | 19 | 0.207 | CN1CCN(c2cc(Nc3cc(C4CCCC4)[nH]n3)nc(Sc3ccccc3)n2)CC1 [a4, N-(5-cyclopentyl-1H-pyrazol-3-yl)-6-(4-methylpiperazin-1-yl)-2-(phenylsulfanyl)pyrimidin-4-amine] | TrkA, TrkB, TrkC, ABL1, AurA,; also recorded: AXL, FGFR2, FGFR3, FLT3, FMS,; also recorded: INSR, JAK2, JAK3, KIT, MAP2K2,; also recorded: MET, PDGFRb, RET, SRC |
| 69 | 18 | 100 | 79 | – | – | – | – | – | – | – | – | CN1CCN(c2cc(Nc3cc(C(C)(C)C)[nH]n3)nc(Sc3ccccc3)n2)CC1 [a8, N-(5-tert-butyl-1H-pyrazol-3-yl)-6-(4-methylpiperazin-1-yl)-2-(phenylsulfanyl) pyrimidin-4-amine] | – |
| 80 | 11 | 7.3 | 0.5 | – | – | – | – | – | – | – | – | Cc1ccc(C)c(Sc2nc(Nc3cc(C)[nH]n3)cc(N3CCN(C)CC3)n2)c1 [b1, 2-[(2,5-dimethylphenyl)sulfanyl]-N-(5-methyl-1H-pyrazol-3-yl)-6-(4-methylpiperazin-1-yl)pyrimidin-4-amine] | – |
| 93 | 31 | 54 | 9.4 | – | – | – | – | – | – | – | – | Cc1ccc(C)c(CSc2nc(Nc3cc(C)[nH]n3)cc(N3CCN(C)CC3)n2)c1 [b2, 2-{[(2,5-dimethylphenyl)methyl]sulfanyl}-N-(5-methyl-1H-pyrazol-3-yl)-6-(4-methylpiperazin-1-yl)pyrimidin-4-amine] | – |
| 53 | 11 | 46 | 4.5 | – | – | – | – | – | – | – | – | Cc1cc(Nc2cc(N3CCN(C)CC3)nc(SCc3ccc(C)c(C)c3)n2)n[nH]1 [b3, 2-{[(3,4-dimethylphenyl)methyl]sulfanyl}-N-(5-methyl-1H-pyrazol-3-yl)-6-(4-methylpiperazin-1-yl)pyrimidin-4-amine] | – |
| 50 | 6.7 | 2.6 | 0.1 | – | – | – | – | – | – | – | – | Cc1cccc(Sc2nc(Nc3cc(C)[nH]n3)cc(N3CCN(C)CC3)n2)c1 [b4, N-(5-methyl-1H-pyrazol-3-yl)-2-[(3-methylphenyl)sulfanyl]-6-(4-methylpiperazin-1-yl)pyrimidin-4-amine] | – |
| 90 | 32 | 36 | 2.4 | – | – | – | – | – | – | – | – | Cc1cc(Nc2cc(N3CCN(C)CC3)nc(Sc3cccc(C(F)(F)F)c3)n2)n[nH]1 [b5, N-(5-methyl-1H-pyrazol-3-yl)-6-(4-methylpiperazin-1-yl)-2-{[3-(trifluoromethyl)phenyl]sulfanyl}pyrimidin-4-amine] | – |
| 74 | 35 | 63 | 7.4 | – | – | – | – | – | – | – | – | Cc1cc(Nc2cc(N3CCN(C)CC3)nc(SCc3cccc4ccccc34)n2)n[nH]1 [b6, N-(5-methyl-1H-pyrazol-3-yl)-6-(4-methylpiperazin-1-yl)-2-[(naphthalen-1-ylmethyl)sulfanyl]pyrimidin-4-amine] | – |
| 35 | 5.3 | 30 | 1.3 | 8.4 | 3.8 | 1.1 | – | 7.3 | 53 | 17 | 0.185 | Cc1ccc(CSc2nc(Nc3cc(C)[nH]n3)cc(N3CCN(C)CC3)n2)cc1 [b8, N-(5-methyl-1H-pyrazol-3-yl)-2-{[(4-methylphenyl)methyl]sulfanyl}-6-(4-methylpiperazin-1-yl)pyrimidin-4-amine] | TrkA, TrkB, TrkC, ABL1, AurA, and AXL, BTK, FGFR3, FLT3, JAK2, and JAK3, KDR, KIT, PLK4, RET, SRC, and TYK2 |
| 77 | 24 | 51 | 3.8 | – | – | – | – | – | – | – | – | Cc1ccc(Sc2nc(Nc3cc(C)[nH]n3)cc(N3CCN(C)CC3)n2)c(C)c1 [b9, 2-[(2,4-dimethylphenyl)sulfanyl]-N-(5-methyl-1H-pyrazol-3-yl)-6-(4-methylpiperazin-1-yl)pyrimidin-4-amine] | – |

| Structure (SMILES) | % Ctrl. TrkA @10 nM (TrkA [1]) [% Ctrl.] | % Ctrl. TrkA @100 nM (TrkA [1]) [% Ctrl.] | % Ctrl. AurA @100 nM (AurA [2]) [% Ctrl.] | % Ctrl. AurA @1 μM (AurA [2]) [% Ctrl.] | TrkA [pKd] (TrkA [3]) | Kd (TrkA [3]) [nM] | ΔpKd (TrkA [4]) | ΔΔpKd (selectivity towards AurA compared to tozasertib) (TrkA [4]; compared to tozasertib) | AurA [pKd] (AurA [5]) | Kd (AurA [5]) [nM] | # Hits (panel of 97 kinases) | Selectivity Score (panel of 97 kinases) | List of inhibited kinases (panel of 97 kinases) |
| --- | --- | --- | --- | --- | --- | --- | --- | --- | --- | --- | --- | --- | --- |
| Cc1cc(Nc2cc(N3CCN(C)CC3)nc(Sc3ccc(NC(=O)C4CC4)cc3)n2)n[nH]1 [Tozasertib, N-[4-({4-[(5-methyl-1H-pyrazol-3-yl)amino]-6-(4-methylpiperazin-1-yl)pyrimidin-2-yl}sulfanyl)phenyl]cyclopropanecarboxamide, reference compound] | 31 | 5.2 | – | – | – | – | – | – | – | – | 10 | – | TrkA, ABL1, AurA, AurB, AXL,; also recorded: CK1d, FLT3, JAK2, PLK4, RET |
